From patent publication US20250144267A1, “USE OF POLYSACCHARIDE DERIVATIVE” (priority 2022, published 2025)
“Also recorded” adds a separate entry of the source.

Columns and labels:
[1] = test system: AB22 cells (mouse mesothelioma cells); experiment: Cell toxicity evaluation (WST assay) of HA-ABA-PMX in AB22; type: cell-based; conditions: PMX 10^−4 to 10 μg/mL, 48 hours
Experimental: (§1) As with the HA-ABA, the cell toxicity of HA-ABA-PMX in MeT-5A (human mesothelial cell line) and AB22 cells (mouse mesothelioma cells) was evaluated by WST assay.
(§2) Specifically, MeT-5A (human mesothelial cell line) and AB22 cells (mouse mesothelioma cells) were seeded on 24-well plates and incubated for 24 hours. The medium was then replaced with medium having HA-ABA-PMX dissolved at different PMX concentrations (10^−4 μg/mL, 10^−3 μg/mL, 10^−2 μg/mL, 10^−1 μg/mL, 1 μg/mL, 10 μg/mL). Cell viability (%) 48 hours after sample addition was then measured by WST-8 assay (Cell Counting Kit-8, Dojindo).
(§3) For purposes of comparison as a control test, cell toxicity was also evaluated using free PMX and HA-ADH-PMX in place of HA-ABA-PMX.

[2] = Release test of PMX from HA-ABA-PMX (dialysis tube, PBS); type: physicochemical
Experimental: The release behavior or PMX from HA-ABA-PMX at different pH values was investigated using a dialysis tube (MWCO: 1 kDa). 1 mL of an aqueous solution of the HA-ABA-PMX (1 mg/mL) obtained in Example II-2 above was placed in a dialysis tube, and shaken at 50 rpm while being incubated with 79 mL of PBS (37° C., pH=5.0, 6.0 7.4). The external solution (sustained release solution) was collected at specific time points, and new PBS was substituted for the entire amount. The drug concentration in the collected external solution (sustained release solution) was measured by UV-vis, and the release rate of the drug PMX was calculated.
For purposes of comparison as control tests, the same release test was also performed with the HA-ABA-PMX solution replaced by an aqueous solution of PMX (0.12 mg/mL) (Free PMX), a mixed solution of HA and PMX obtained by dissolving hyaluronic acid (HA) (1 mg/mL) and PMX (0.12 mg/mL) in water (Free PMX mixed with HA), and an aqueous solution of HA-ADH-PMX having the HA bound irreversibly to the PMX by amide bonds.

[3] = test system: MeT-5A (human mesothelial cell line); experiment: Cell toxicity evaluation (WST assay) of HA-ABA-PMX in MeT-5A; type: cell-based; conditions: PMX 10^−4 to 10 μg/mL, 48 hours
Experimental: as §1, §2, §3

[4] = Release test of Van from AL-ABA-Van solution (dialysis membrane, PBS); type: physicochemical; conditions: PBS pH 5.0, 6.0, 7.4, 37°C
Experimental: The release behavior or Van from an AL-ABA-Van solution at different pH values was investigated using a dialysis membrane (pore size: 50 kDa). Specifically, 1 mL of an AL-ABA-Van solution of the AL-ABA-Van obtained in Example I-7 above dissolved in 3 mg/mL of pure water was injected into a dialysis membrane cut to 9 cm, and both ends of the dialysis membrane were tied with kite thread. This was placed in an 80 mL security container, 79 mL of PBS solution was added, and the mixture was stirred at the maximum rotational speed with a 1 cm stirrer tip in a 37° C. thermostatic tank. 1.0 mL samples were taken from the solution in the security container at specific time points (1, 2, 3, 4, 6, 8, 12, 24, and 48 hours). The sample solutions were subjected to UV-vis spectrum measurement, the drug concentration in the solutions was assayed based on absorbance, and the release rate of the drug Van (vancomycin release %) was calculated. The above measurements were conducted with pH 5.0, pH 6.0 and pH 7.4 PBS solutions (n=4 at each pH). […]

[5] = test system: AB22 cells (mouse mesothelioma cells); experiment: Cell toxicity evaluation (WST assay) of HA-ABA-DOX in AB22; type: cell-based; conditions: DOX 10^−3 to 100 μg/mL, 48 hours
Experimental: As with the HA-ABA, the cell toxicity of HA-ABA-DOX in AB22 cells (mouse mesothelioma cells) was evaluated by WST assay.
Specifically, AB22 cells (mouse mesothelioma cells) were seeded on 24-well plates and incubated for 24 hours. The medium was then replaced with media having HA-ABA-PMX dissolved at different DOX concentrations (10^−3 μg/mL, 10^−2 μg/mL, 10^−1 μg/mL, 1 μg/mL, 10 μg/mL, 100 μg/mL). Cell viability (%) 48 hours after sample addition was then measured by WST-8 assay (Cell Counting Kit-8, Dojindo).
For purposes of comparison as a control test, cell toxicity was also evaluated using free DOX in place of HA-ABA-DOX.

## Nc1nc2[nH]cc(CCc3ccc(C(=O)N[C@@H](CCC(=O)O)C(=O)O)cc3)c2c(=O)[nH]1 [Free PMX, Pemetrexed, reference compound]
[1]
  Cell growth inhibition effect (cell viability): dose-dependent cell growth inhibition effects
[2]; PBS, 37°C
  PMX release behavior: almost all of the PMX was rapidly released within 2 hours
[3]
  Cell growth inhibition effect (cell viability): dose-dependent cell growth inhibition effects

## CN[C@H](CC(C)C)C(=O)N[C@H]1C(=O)N[C@@H](CC(N)=O)C(=O)N[C@H]2C(=O)N[C@H]3C(=O)N[C@H](C(=O)N[C@H](C(=O)O)c4cc(O)cc(O)c4-c4cc3ccc4O)[C@H](O)c3ccc(c(Cl)c3)Oc3cc2cc(c3O[C@@H]2O[C@H](CO)[C@@H](O)[C@H](O)[C@H]2O[C@H]2C[C@](C)(N)[C@H](O)[C@H](C)O2)Oc2ccc(cc2Cl)[C@H]1O [Van, Vancomycin]
[4]
  Van release behavior: almost all of the Van was released in the first 10 hours

## COc1cccc2c1C(=O)c1c(O)c3c(c(O)c1C2=O)C[C@@](O)(C(=O)CO)C[C@@H]3O[C@H]1C[C@H](N)[C@H](O)[C@H](C)O1 [free DOX, Doxorubicin]
[5]
  Cell growth inhibition effect (cell viability): dose-dependent cell growth inhibition effects on AB22

## benzaldehyde-modified hyaluronic acid-pemetrexed conjugate [HA-ABA-PMX]
[1]
  Cell growth inhibition effect (cell viability): dose-dependent cell growth inhibition effects; also recorded: reduced cell viability at lower concentrations than the free PMX and the HA-ADH-PMX
[2]; PBS pH 5.0, 37°C, after 24 hours
  PMX released (cumulative drug release): more than 80%
[2]; PBS pH 7.4, 37°C, after 24 hours
  PMX not released: 40%
[3]
  Cell growth inhibition effect (cell viability): dose-dependent cell growth inhibition effects; also recorded: reduced cell viability at lower concentrations than the free PMX and the HA-ADH-PMX
